Tests used:
[1] = target: T1, Kif2A-MD (Homo sapiens, UniProt O00139); test: malachite green phosphate release ATPase assay; format: biochemical; settings: tubulin- or microtubule-stimulated; BRB80-based buffer pH 6.8, 1 mM MgCl2, 75 mM KCl; without DARPin
T1 construct: motor domain without most of the neck, residues 203-554, pGex-6P1, PreScission-cleaved GST fusion; 1:1 complex with tubulin; with Tubulin alpha chain (Bos taurus, brain); Tubulin beta chain (Bos taurus, brain)

[2] = target: T2, Kif2A-NM (Homo sapiens, UniProt O00139); test: malachite green phosphate release ATPase assay; format: biochemical; settings: tubulin- or microtubule-stimulated; BRB80-based buffer pH 6.8, 1 mM MgCl2, 75 mM KCl; without DARPin
T2 construct: neck plus motor domain, residues 153-553, monomer, 48 kDa, His-tagged, from E. coli BL21(DE3) pLysS; studied with bovine brain tubulin (1:2 complex), crystal also holds DARPin D1; full length 706 residues; with Tubulin alpha chain (Bos taurus, brain); Tubulin beta chain (Bos taurus, brain)
T2 sequence (O00139 153-553): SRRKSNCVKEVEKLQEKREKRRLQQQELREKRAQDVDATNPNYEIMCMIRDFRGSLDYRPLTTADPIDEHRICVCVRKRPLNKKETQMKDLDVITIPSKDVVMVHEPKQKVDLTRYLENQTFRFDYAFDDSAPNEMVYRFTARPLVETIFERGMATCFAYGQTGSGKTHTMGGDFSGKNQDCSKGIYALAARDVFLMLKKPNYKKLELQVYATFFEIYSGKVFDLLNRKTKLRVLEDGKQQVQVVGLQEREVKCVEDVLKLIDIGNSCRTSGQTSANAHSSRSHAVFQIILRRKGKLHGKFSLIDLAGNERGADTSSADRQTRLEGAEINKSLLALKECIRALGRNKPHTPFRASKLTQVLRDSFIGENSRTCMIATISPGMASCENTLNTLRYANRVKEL
T2 sequence (P81947 whole entry partner, the tested form may be a part): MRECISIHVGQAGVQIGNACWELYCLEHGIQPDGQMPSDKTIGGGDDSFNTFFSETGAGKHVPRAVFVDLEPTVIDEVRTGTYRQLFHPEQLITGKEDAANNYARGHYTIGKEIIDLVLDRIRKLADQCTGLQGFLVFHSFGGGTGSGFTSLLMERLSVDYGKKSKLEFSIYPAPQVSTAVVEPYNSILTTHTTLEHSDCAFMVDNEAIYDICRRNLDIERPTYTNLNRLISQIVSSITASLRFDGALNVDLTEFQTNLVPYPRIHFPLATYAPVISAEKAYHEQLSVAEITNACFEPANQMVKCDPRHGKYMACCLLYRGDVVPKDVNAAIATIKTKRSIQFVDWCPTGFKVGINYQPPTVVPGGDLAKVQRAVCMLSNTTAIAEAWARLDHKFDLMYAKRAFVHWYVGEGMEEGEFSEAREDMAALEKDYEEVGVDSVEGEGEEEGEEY
T2 sequence (Q6B856 whole entry partner, the tested form may be a part): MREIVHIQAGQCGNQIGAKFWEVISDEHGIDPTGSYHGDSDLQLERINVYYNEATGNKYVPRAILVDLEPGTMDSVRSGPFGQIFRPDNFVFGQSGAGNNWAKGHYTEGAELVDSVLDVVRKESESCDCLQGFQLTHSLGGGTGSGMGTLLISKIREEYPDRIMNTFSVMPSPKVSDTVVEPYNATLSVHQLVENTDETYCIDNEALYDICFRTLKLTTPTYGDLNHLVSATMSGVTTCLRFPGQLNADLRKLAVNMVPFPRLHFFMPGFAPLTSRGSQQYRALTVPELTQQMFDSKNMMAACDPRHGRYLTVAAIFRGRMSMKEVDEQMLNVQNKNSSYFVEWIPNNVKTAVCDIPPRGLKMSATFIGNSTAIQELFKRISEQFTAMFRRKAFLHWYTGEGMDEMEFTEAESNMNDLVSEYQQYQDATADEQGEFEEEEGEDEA

[3] = target: αβ-tubulin heterodimer from bovine brain (bovine) (UniProt Q6B856); test: not stated; Kif2A-MD with tubulin, shown in Supplementary Figure 6; method not given
[4] = target: αβ-tubulin heterodimer from bovine brain (bovine) (UniProt Q6B856); test: SEC-SAXS; in-line Superdex 200 10/300 GL, 20 mM HEPES, 150 mM NaCl, 1 mM MgCl2, pH 7.2; 25 μM tubulin, 27 μM DARPin, 20 μM Kif2A-NM, 0.1 mM AMPPNP; 270 kDa peak; 22 °C

Chain of Kif2A-NM (human Kif2A neck plus motor domain, residues 153–553) (O00139 153-553): as the sequence (O00139 153-553) above
T1 sequence (O00139 203-554): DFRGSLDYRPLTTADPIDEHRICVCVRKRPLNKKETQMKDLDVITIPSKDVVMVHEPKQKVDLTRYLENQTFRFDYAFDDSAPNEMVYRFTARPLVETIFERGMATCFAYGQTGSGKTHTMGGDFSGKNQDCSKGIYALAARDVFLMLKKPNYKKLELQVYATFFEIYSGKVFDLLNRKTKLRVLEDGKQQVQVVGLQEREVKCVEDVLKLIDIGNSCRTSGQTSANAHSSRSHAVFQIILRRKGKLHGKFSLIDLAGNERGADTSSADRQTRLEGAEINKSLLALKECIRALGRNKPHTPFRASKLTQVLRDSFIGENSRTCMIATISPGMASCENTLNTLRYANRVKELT
T1 sequence (P81947 whole entry partner, the tested form may be a part): as the sequence (P81947 whole entry partner, the tested form may be a part) above
T1 sequence (Q6B856 whole entry partner, the tested form may be a part): as the sequence (Q6B856 whole entry partner, the tested form may be a part) above
Chain of Kif2A-MD (human Kif2A motor domain without the neck, residues 203–554) (O00139 203-554): as the sequence (O00139 203-554) above

Compound: Nc1ncnc2c1ncn2[C@@H]1O[C@H](COP(=O)(O)OP(=O)(O)OP(=O)(O)O)[C@@H](O)[C@H]1O [ATP]
- ATP turnover rate [1]: ATP turnover rates of Kif2A-NM (orange) and Kif2A-MD (gray) in the presence of tubulin
- ATP turnover rate [2]: ATP turnover rates of Kif2A-NM (orange) and Kif2A-MD (gray) in the presence of tubulin

Compound: Kif2A-MD (human Kif2A motor domain without the neck, residues 203–554) (from UniProt O00139 203-554) (domain or fragment)
- stoichiometry N (Kif2A-MD per tubulin dimer (1:1)) [3]: 1

Compound: Kif2A-NM (human Kif2A neck plus motor domain, residues 153–553) (from UniProt O00139 153-553) (domain or fragment)
- stoichiometry N (αβ-tubulin dimers per Kif2A-NM) [4]: 2
